Laboratory results published in patent US5298494A, “Monosaccharides having anti-proliferation and anti-inflammatory activity, compositions and uses thereof” (Greenwich Pharmaceuticals Incorporated, priority 1993, dated 1994).

How the values were obtained:
GS-109-V-20 skin cells = test: Morphological examination of GS-109-V-20 cultures for drug-induced toxicity; type: cell-based, human
Procedure: (§1) After 3 days of culture, 1#uCi ^3 H-thymidine was added in 50 ul volume to each culture well of the microtiter plates. Eighteen hours later, each of the GS-109-V-20 cultures was examined morphologically for evidence of drug-induced toxicity such as cell rounding or granularity. The ^3 H-thymidine-pulsed cells were then precipitated and the amount of ^3 H-thymidine incorporation was counted on a liquid scintillation counter.

[1] = system: GS-109-V-20 human skin cell fibroblasts; test: Fibroblast assay: proliferation of GS-109-V-20 skin cell fibroblasts; type: cell-based; conditions: for effect on GS-109-V-20 fibroblast proliferation in words: text
Procedure: The effect of methyl 3-O-3'-(N',N'-dimethylamino-n-propyl)-6-deoxy-D-glucopyranoside on the proliferative capacity of human GS-109-V-20 skin fibroblasts was measured with the use of ^3 H-thymidine incorporation assay. Cultured skin cells were detached from the surface of tissue culture flasks mechanically with a Teflon scraper. The cells were washed, resuspended in incubation medium and the viabilities determined. These cells were then plated in triplicate at a density of 1×10^3 cells/0.1 ml/microtiter well. To these cells was added 0.1 ml incubation medium containing the methyl 3-O-3'-(N',N'-dimethylamino-n-propyl)-6-deoxy-D-glucopyranoside compound.
as §1
Methyl 3-O-3'-(N',N'-dimethylamino-n-propyl)-6-deoxy-D-glucopyranoside was suspended directly into the medium by extensive sonication, without being filter-sterilized. A range of doses of this compound was used to measure effects of this compound upon GS-109-V-20 cell proliferation. The following doses were used:
The human skin cell fibroblast line, GS-109-V-20, was obtained from the American Type Culture-Collection. […] These cells were selected for use because they are considered to exist in an initiated state, as opposed to being normal or transformed, and have a more extensive population doubling time and survival period in culture than do normal fibroblasts. In this regard, they would more closely reflect the biological characteristics of psoriatic or rheumatoid synovial fibroblasts which also proliferate more extensively than do normal fibroblasts, but not as extensively as immortalized transformed tumor cells.
The number of GS-109-V-20 cells was expanded for use in the described assays by culture in 25 cm^2 flasks at 37° C. in an atmosphere of 5% CO2 in air. At approximately 4-5 day intervals, or when confluence was reached, the cells were passaged. This was accomplished by detaching the cells by trypsinization, washing and reseeding the cells at a lower density into fresh tissue culture flasks.

COC1O[C@H](C)[C@@H](O)[C@H](OCCCN(C)C)[C@H]1O (stereo partly drawn) [V, Methyl 3-O-3'-(N',N'-dimethylamino-n-propyl)-6-deoxy-D-glucopyranoside]
cytotoxicity in GS-109-V-20 cultures, in words (GS-109-V-20 skin cells): without evidence of cytotoxicity | ^3 H-Thymidine uptake by GS-109-V-20 skin cells ([1]; 0.001 ug/ml): 2,557 ± 258 cpm | ^3 H-Thymidine uptake by GS-109-V-20 skin cells ([1]; 0.01 ug/ml): 976 ± 469 cpm | ^3 H-Thymidine uptake by GS-109-V-20 skin cells ([1]; 0.1 ug/ml): 1,052 ± 177 cpm | ^3 H-Thymidine uptake by GS-109-V-20 skin cells ([1]; 1 ug/ml): 1,237 ± 301 cpm | ^3 H-Thymidine uptake by GS-109-V-20 skin cells ([1]; 2.5 ug/ml): 1,044 ± 106 cpm | ^3 H-Thymidine uptake by GS-109-V-20 skin cells ([1]; 10 ug/ml): 900 ± 189 cpm | ^3 H-Thymidine uptake by GS-109-V-20 skin cells ([1]; 25 ug/ml): 946 ± 41 cpm | ^3 H-Thymidine uptake by GS-109-V-20 skin cells ([1]; 100 ug/ml): 647 ± 541 cpm | inhibition at 0.001 µg/mL ([1]; Homo sapiens, Fibroblast, 0.001 ug/ml, read-out: % effect on GS-109-V-20 proliferation): 12% | inhibition at 0.01 µg/mL ([1]; Homo sapiens, Fibroblast, 0.01 ug/ml, read-out: % effect on GS-109-V-20 proliferation): 66% | inhibition at 0.1 µg/mL ([1]; Homo sapiens, Fibroblast, 0.1 ug/ml, read-out: % effect on GS-109-V-20 proliferation): 64% | inhibition at 1 µg/mL ([1]; Homo sapiens, Fibroblast, 1 ug/ml, read-out: % effect on GS-109-V-20 proliferation): 58% | inhibition at 2.5 µg/mL ([1]; Homo sapiens, Fibroblast, 2.5 ug/ml, read-out: % effect on GS-109-V-20 proliferation): 64% | inhibition at 10 µg/mL ([1]; Homo sapiens, Fibroblast, 10 ug/ml, read-out: % effect on GS-109-V-20 proliferation): 69% | inhibition at 25 µg/mL ([1]; Homo sapiens, Fibroblast, 25 ug/ml, read-out: % effect on GS-109-V-20 proliferation): 68% | inhibition at 100 µg/mL ([1]; Homo sapiens, Fibroblast, 100 ug/ml, read-out: % effect on GS-109-V-20 proliferation): 78% | effect on GS-109-V-20 fibroblast proliferation in words ([1]; listed as Methyl 3-O-3'-(N',N'-dimethylamino-n-propyl)-6-deoxy-D-glucopyranoside): inhibitory effects on the proliferation of GS-109-V-20 human skin cell fibroblasts | effect on GS-109-V-20 fibroblast proliferation in words ([1]; listed as methyl 3-O-3'-(N',N'-dimethylamino-n-propyl)-6-deoxy-D-glucopyranoside): A significant inhibitory effect was observed in a non-dose-dependent manner
